The record followed here is patent US20260159511A1, “SMALL MOLECULE STING ANTAGONISTS” (CURADEV PHARMA PVT. LTD., priority 2021, published 2026).

By IC50 is commonly meant the point on the concentration scale where inhibition reaches its midpoint.

For the assay, the system named is IRF pathway in THP1-Dual™ cells, THP-1 (HAQ). The assay can be described thus: Reporter gene expression assay in THP-1 cells (THP1-Dual, IRF pathway Lucia luciferase reporter, 2′,3′-cGAMP stimulation). The settings on record: Homo sapiens; THP1-Dual cells preincubated with compound 10 minutes, stimulation with 5 μM 2′,3′-cGAMP for 20 hr, QUANTI-Luc readout of the supernatant; read-out: THP-1 (HAQ) Activity (IC50 value range). It is filed as cell-based, human. On the procedure:
Reporter Gene Expression Assay in THP-1 Cells
THP1-Dual™ cells (Invivogen) were derived from the human THP-1 monocyte cell line by stable integration of two inducible reporter constructs. As a result, THP1-Dual™ cells allow the simultaneous study of the IRF pathway, by assessing the activity of a secreted luciferase (Lucia) and the NF-κB pathway, by monitoring the activity of secreted SEAP. 5×10^4 THP1-Dual™ cells were seeded in 384-well plates in growth medium and preincubated with novel compounds for 10 minutes followed by stimulation with 5 μM 2′,3′-cGAMP. After 20 hr of stimulation the supernatant was removed and the IRF pathway reporter protein was readily measured in the cell culture supernatant using QUANTI-Luc™ (Invivogen), a luciferase detection reagent on a Spectramax i3X luminometer.
For orientation: In a reporter assay the amount or activity of a reporter protein is the signal.

Take `O=C(Nc1ccc2c(c1)N(Cc1ccccc1)C(=O)CS2)Nc1c[nH]c2ccc(-c3ccc(O)nc3)cc12` [Example 63, 1-(4-benzyl-3-oxo-3,4-dihydro-2H-benzo[b][1,4]thiazin-6-yl)-3-(5-(6-hydroxypyridin-3-yl)-1H-indol-3-yl)urea]: the IC50 fell in the range of 1000 to 10000 nM.
With `O=C(Nc1ccc2c(c1)N(Cc1ccccc1)C(=O)CS2)Nc1c[nH]c2ccc(-c3cncs3)cc12` [Example 64, 1-(4-benzyl-3-oxo-3,4-dihydro-2H-benzo[b][1,4]thiazin-6-yl)-3-(5-(thiazol-5-yl)-1H-indol-3-yl)urea], the IC50 was under 1000 nM.
`O=C(Nc1ccc2c(c1)N(Cc1ccccc1)C(=O)CS2)Nc1c[nH]c2ccc(-c3ccc4c(c3)OCO4)cc12` [Example 65, 1-(5-(benzo[d][1,3]dioxol-5-yl)-1H-indol-3-yl)-3-(4-benzyl-3-oxo-3,4-dihydro-2H-benzo[b][1,4]thiazin-6-yl)urea]: the IC50 was under 1000 nM.
Next, `O=C(Nc1ccc2c(c1)N(Cc1ccccc1)C(=O)CS2)Nc1c[nH]c2ccc(-c3cnoc3)cc12` [Example 66, 1-(4-benzyl-3-oxo-3,4-dihydro-2H-benzo[b][1,4]thiazin-6-yl)-3-(5-(isoxazol-4-yl)-1H-indol-3-yl)urea]: under 1000 nM; `O=C(Nc1ccc2c(c1)N(Cc1ccccc1)C(=O)CS2)Nc1c[nH]c2ccc(-c3cccc(C(F)(F)F)c3)cc12` [Example 67, 1-(4-benzyl-3-oxo-3,4-dihydro-2H-benzo[b][1,4]thiazin-6-yl)-3-(5-(3-(trifluoromethyl)phenyl)-1H-indol-3-yl)urea]: under 1000 nM; `CC(O)Cn1cc(-c2ccc3[nH]cc(NC(=O)Nc4ccc5c(c4)N(Cc4ccccc4)C(=O)CS5)c3c2)cn1` (centres unmarked) [Example 68, 1-(4-benzyl-3-oxo-3,4-dihydro-2H-benzo[b][1,4]thiazin-6-yl)-3-(5-(1-(2-hydroxypropyl)-1H-pyrazol-4-yl)-1H-indol-3-yl)urea]: 1000 to 10000 nM.
The figure for `CC1CN(Cc2cc(F)cc(F)c2)c2cc(NC(=O)Nc3c[nH]c4ccc(F)cc34)ccc2S1` (centres unmarked) [Example 69, 1-(4-(3,5-Difluorobenzyl)-2-methyl-3,4-dihydro-2H-benzo[b][1,4]thiazin-6-yl)-3-(5-fluoro-1H-indol-3-yl)urea] is under 1000 nM; for `CC1CN(C(=O)c2ccccc2)c2cc(NC(=O)Nc3c[nH]c4ccccc34)ccc2S1` (centres unmarked) [Example 70, 1-(4-Benzoyl-2-methyl-3,4-dihydro-2H-benzo[b][1,4]thiazin-6-yl)-3-(1H-indol-3-yl)urea] it is under 1000 nM.
The figure for `O=C(Nc1ccc2c(c1)N(Cc1ccccc1)CCO2)Nc1c[nH]c2ccccc12` [Example 71, 1-(4-benzyl-3,4-dihydro-2H-benzo[b][1,4]oxazin-6-yl)-3-(1H-indol-3-yl)urea] is under 1000 nM; for `O=C(Nc1ccc2c(c1)OCCN2Cc1ccccc1)Nc1c[nH]c2ccccc12` [Example 72, 1-(4-benzyl-3,4-dihydro-2H-benzo[b][1,4]oxazin-7-yl)-3-(1H-indol-3-yl)urea] it is under 1000 nM; for `O=C(Nc1ccc2c(c1)SCCN2Cc1ccccc1)Nc1c[nH]c2ccccc12` [Example 73, 1-(4-benzyl-3,4-dihydro-2H-benzo[b][1,4]thiazin-7-yl)-3-(1H-indol-3-yl)urea] it is under 1000 nM.
As for `O=C(Nc1ccc2c(c1)N(Cc1c(F)cccc1Cl)CCO2)Nc1c[nH]c2ccccc12` [Example 74, 1-(4-(2-chloro-6-fluorobenzyl)-3,4-dihydro-2H-benzo[b][1,4]oxazin-6-yl)-3-(1H-indol-3-yl)urea], the IC50 is under 1000 nM.
The figure for `O=C(Nc1ccc2c(c1)N(Cc1c(F)cccc1Cl)CCS2)Nc1c[nH]c2ccccc12` [Example 75, 1-(4-(2-chloro-6-fluorobenzyl)-3,4-dihydro-2H-benzo[b][1,4]thiazin-6-yl)-3-(1H-indol-3-yl)urea] is under 1000 nM; for `O=C(Nc1ccc2c(c1)OCCN2Cc1c(F)cccc1Cl)Nc1c[nH]c2ccccc12` [Example 76, 1-(4-(2-chloro-6-fluorobenzyl)-3,4-dihydro-2H-benzo[b][1,4]oxazin-7-yl)-3-(1H-indol-3-yl)urea] it is under 1000 nM; for `O=C(Nc1ccc2c(c1)SCCN2Cc1c(F)cccc1Cl)Nc1c[nH]c2ccccc12` [Example 77, 1-(4-(2-chloro-6-fluorobenzyl)-3,4-dihydro-2H-benzo[b][1,4]thiazin-7-yl)-3-(1H-indol-3-yl)urea] it is under 1000 nM.
`CN1CCSc2ccc(NC(=O)Nc3c[nH]c4ccccc34)cc21` [Example 78, 1-(1H-indol-3-yl)-3-(4-methyl-3,4-dihydro-2H-benzo[b][1,4]thiazin-6-yl)urea]: the IC50 was under 1000 nM.
For the compound `O=C(Nc1ccc2c(c1)N(C(=O)c1ccccc1)CCS2)Nc1c[nH]c2ccccc12` [Example 79, 1-(4-benzoyl-3,4-dihydro-2H-benzo[b][1,4]thiazin-6-yl)-3-(1H-indol-3-yl)urea], the IC50 was under 1000 nM.
For `O=C(Nc1ccc2c(c1)SCCN2C(=O)c1ccccc1)Nc1c[nH]c2ccccc12` [Example 80, 1-(4-benzoyl-3,4-dihydro-2H-benzo[b][1,4]thiazin-7-yl)-3-(1H-indol-3-yl)urea], the concentration for half-maximal inhibition (IC50) is under 1000 nM.
Next, `O=C(Nc1ccc2c(c1)SCCN2Cc1c(F)cccc1F)Nc1c[nH]c2ccccc12` [Example 81, 1-(4-(2,6-difluorobenzyl)-3,4-dihydro-2H-benzo[b][1,4]thiazin-7-yl)-3-(1H-indol-3-yl)urea]: under 1000 nM; `Cc1cccc(F)c1CN1CCSc2cc(NC(=O)Nc3c[nH]c4ccccc34)ccc21` [Example 82, 1-(4-(2-fluoro-6-methylbenzyl)-3,4-dihydro-2H-benzo[b][1,4]thiazin-7-yl)-3-(1H-indol-3-yl)urea]: under 1000 nM; `CC1CN(Cc2ccccc2)c2cc(NC(=O)Nc3c[nH]c4ccccc34)ccc2S1` (centres unmarked) [Example 83, 1-(4-benzyl-2-methyl-3,4-dihydro-2H-benzo[b][1,4]thiazin-6-yl)-3-(1H-indol-3-yl)urea]: under 1000 nM.
Next, `CC1CN(Cc2c(F)cccc2Cl)c2cc(NC(=O)Nc3c[nH]c4ccccc34)ccc2S1` (centres unmarked) [Example 84, 1-(4-(2-chloro-6-fluorobenzyl)-2-methyl-3,4-dihydro-2H-benzo[b][1,4]thiazin-6-yl)-3-(1H-indol-3-yl)urea]: under 1000 nM.
Next, `CC1CN(Cc2ccccc2)c2ccc(NC(=O)Nc3c[nH]c4ccccc34)cc2S1` (centres unmarked) [Example 85, 1-(4-benzyl-2-methyl-3,4-dihydro-2H-benzo[b][1,4]thiazin-7-yl)-3-(1H-indol-3-yl)urea]: under 1000 nM; `Cc1cc(CN2CCSc3cc(NC(=O)Nc4c[nH]c5ccccc45)ccc32)on1` [Example 86, 1-(1H-indol-3-yl)-3-(4-((3-methylisoxazol-5-yl)methyl)-3,4-dihydro-2H-benzo[b][1,4]thiazin-7-yl)urea]: under 1000 nM; `N#Cc1ccccc1CN1CCSc2cc(NC(=O)Nc3c[nH]c4ccccc34)ccc21` [Example 87, 1-(4-(2-cyanobenzyl)-3,4-dihydro-2H-benzo[b][1,4]thiazin-7-yl)-3-(1H-indol-3-yl)urea]: under 1000 nM.
As for `O=C(Nc1ccc2c(c1)SCCN2Cc1cc(F)cc(F)c1)Nc1c[nH]c2ccccc12` [Example 88, 1-(4-(3,5-difluorobenzyl)-3,4-dihydro-2H-benzo[b][1,4]thiazin-7-yl)-3-(1H-indol-3-yl)urea], the IC50 was under 1000 nM.
